This assay addresses T1, Muscarinic acetylcholine receptor M4 (Rattus norvegicus, UniProt P08485).
T1 sequence (P08485 whole entry): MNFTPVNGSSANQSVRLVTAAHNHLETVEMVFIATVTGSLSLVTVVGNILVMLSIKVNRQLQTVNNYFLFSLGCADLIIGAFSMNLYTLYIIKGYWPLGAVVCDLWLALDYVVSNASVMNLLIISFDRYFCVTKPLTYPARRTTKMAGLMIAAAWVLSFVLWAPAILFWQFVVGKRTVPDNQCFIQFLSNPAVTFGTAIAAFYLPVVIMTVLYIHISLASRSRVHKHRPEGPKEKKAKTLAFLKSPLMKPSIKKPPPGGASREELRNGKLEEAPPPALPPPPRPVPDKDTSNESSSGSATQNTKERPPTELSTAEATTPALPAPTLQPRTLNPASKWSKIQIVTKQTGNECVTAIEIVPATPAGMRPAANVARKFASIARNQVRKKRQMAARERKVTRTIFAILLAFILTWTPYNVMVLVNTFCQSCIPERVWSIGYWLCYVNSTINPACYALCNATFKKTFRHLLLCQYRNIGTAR
In words: rat M4 radioligand competition binding – biochemical, NMS competition, mechanism study for M4 PAM project, late-stage follow-up (AID 1939). Conditions: inactive by the depositor's call. Background: In a radioligand displacement assay an active substance lowers the binding of a labelled ligand.

The term Ki denotes a measure of affinity in units of concentration, obtained from inhibition or displacement. A low value points to tighter binding. As for `Cc1cc(C)c2c(N)c(C(=O)NCc3ccc4c(c3)OCO4)sc2n1` [3-amino-4,6-dimethyl-N-piperonyl-thieno[2,3-b]pyridine-2-carboxamide], the Ki was determined as 46.8 nM.

Source of the values: BindingDB's records for doi:10.7270/Q2NV9GNV (Vanderbilt Screening Center for GPCRs, Ion Channels and …, 2009).
